Two compounds from patent publication US20090312521A1 (priority 2004, published 2009) can be followed below.

≈ marks a conversion by molar mass, not a printed value. Non-standard residues stand in square brackets, D forms with d. Residues, ends and D or L forms follow the SMILES beside them. βAla = NCCC(=O)O

The subject of assay [1] is Erwinia chrysanthemi.
Assay [2] relates to Erwinia carotovora atroseptica. The assay can be described thus: Additional antimicrobial test (MIC). The class given is cell-based. The note with it: Gram −, NB/BHI, 28/37 ° C.
Assay [3] concerns Serratia marcescens. As to the kind of experiment: Additional antimicrobial test (MIC). The note with it: Gram −, NB, 22 ° C. The format is cell-based.
Assay [4] has as its system Enterobacter aerogenes.
The subject of assay [5] is Erwinia herbicola.

On to `CC[C@H](C)[C@H](NC(=O)[C@@H]1CCCN1C(=O)[C@H](CCCNC(=N)N)NC(=O)[C@@H]1CCCN1C(=O)[C@H](Cc1c[nH]cn1)NC(=O)[C@H](CO)NC(=O)[C@@H](NC(=O)[C@@H]1CCCN1C(=O)[C@H](CCCNC(=N)N)NC(=O)[C@@H]1CCCN1C(=O)[C@@H](NC(=O)[C@H](Cc1ccc(O)cc1)NC(=O)[C@@H]1CCCN1C(=O)[C@H](CCCNC(=N)N)NC(=O)[C@@H]1CCCN1C(=O)[C@H](CCCCN)NC(=O)CN)[C@@H](C)O)[C@@H](C)O)C(=O)N[C@@H](CCCNC(=N)N)C(=O)N[C@H](C(=O)O)C(C)C` [Peptide 4, GKPRP YTPRP TSHPR PIRV] (H-GKPRPYTPRPTSHPRPIRV-OH; N-terminus assumed), for which the MIC is 50 µM (≈ 111 µg/mL) in assay [1]; “NI at ≦100 μM” in assay [2]; “NI at ≦100 μM” in assay [3]; 100 µM (≈ 221 µg/mL) in assay [4]; 6.75 µM (≈ 14.9 µg/mL) in assay [5].
In the case of `CC[C@H](C)[C@H](NC(=O)[C@@H]1CCCN1C(=O)[C@H](CCCNC(=N)N)NC(=O)[C@@H]1CCCN1C(=O)[C@H](Cc1c[nH]cn1)NC(=O)[C@H](CO)NC(=O)[C@@H](NC(=O)[C@@H]1CCCN1C(=O)[C@H](CCCNC(=N)N)NC(=O)[C@@H]1CCCN1C(=O)[C@@H](NC(=O)[C@H](Cc1ccc(O)cc1)NC(=O)[C@@H]1CCCN1C(=O)[C@H](CCCNC(=N)N)NC(=O)[C@@H]1CCCN1C(=O)[C@H](CCCCN)NC(=O)CCN)[C@@H](C)O)[C@@H](C)O)C(=O)N[C@@H](CCCNC(=N)N)C(=O)N[C@H](C(=O)O)C(C)C` [Peptide 14, βAlaKPRP YTPRP TSHPR PIRV] (H-[βAla]KPRPYTPRPTSHPRPIRV-OH; N-terminus assumed), the MIC in assay [1] was 100 µM (≈ 223 µg/mL); in assay [2], “NI at ≦100 μM”; in assay [3] it was “NI at ≦100 μM”; in assay [4], 100 µM (≈ 223 µg/mL); in assay [5], 6.75 µM (≈ 15 µg/mL).
